Read-outs that look alike come from different tables or passages of the source.
Columns and labels:
Test in all cases: Sensitivity test (agar dilution)
[1] = test system: S. epidermidis IAM1296; assay type: cell-based, Staphylococcus epidermidis
Method in brief: (§1)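 Each strain, cultured overnight at 37° C and adjusted to about 10^6 CFU/ml in BSG, was spotted (about 5 μl) on Mueller Hinton agar with twofold serial drug concentrations. Inhibition defines the MIC.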

[2] = test system: Str. pyogenes Cook; assay type: cell-based, Streptococcus pyogenes; conditions: Streptococcus pyogenes
Method in brief: as §1

[3] = test system: E. faecalis ATCC19433; assay type: cell-based, Enterococcus faecalis
Method in brief: as §1

[4] = test system: E. faecium ATCC19434; assay type: cell-based, Enterococcus faecium; conditions: for MIC: Enterococcus faecium
Method in brief: as §1

[5] = test system: B. subtilis ATCC6633; assay type: cell-based, Bacillus subtilis; conditions: Bacillus subtilis
Method in brief: as §1

[6] = test system: E. coli ML1410; assay type: cell-based, Escherichia coli; conditions: Escherichia coli
Method in brief: as §1

[7] = test system: E. coli NIHJ JC-2; assay type: cell-based, Escherichia coli; conditions: Escherichia coli, E. coli NIHJ JC-2, read-out: MIC concomitant
Method in brief: as §1

SMILES: C[C@H]1C=C(c2csc(SC3=C(C(=O)O)N4C(=O)[C@H]([C@@H](C)O)[C@H]4[C@H]3C)n2)CN1 [SM, (4R,5S,6S)-6-[(1R)-1-Hydroxyethyl]-4-methyl-3-({4-[(5S)-5-methyl-2,5-dihydro-1H-pyrrol-3-yl]-1,3-thiazol-2-yl}sulfanyl)-7-oxo-1-azabicyclo[3.2.0]hept-2-ene-2-carboxylic acid]
- MIC ([1]; Staphylococcus epidermidis, IAM1296, Concomitant (AZT:SM = 1:1), S. epidermidis IAM1296, read-out: MIC concomitant): 0.031 µg/mL
- MIC ([1]; Staphylococcus epidermidis, IAM1296, Concomitant (BIPM:SM = 1:1), S. epidermidis IAM1296, read-out: MIC concomitant): 0.031 µg/mL
- MIC ([1]; Staphylococcus epidermidis, IAM1296, Concomitant (CAZ:SM = 1:1), S. epidermidis IAM1296, read-out: MIC concomitant): 0.031 µg/mL
- MIC ([1]; Staphylococcus epidermidis, IAM1296, Concomitant (CPFX:SM = 1:1), S. epidermidis IAM1296, read-out: MIC concomitant): 0.031 µg/mL
- MIC ([1]; Staphylococcus epidermidis, IAM1296, Concomitant (DRPM:SM = 1:1), S. epidermidis IAM1296, read-out: MIC concomitant): 0.031 µg/mL
- MIC ([1]; Staphylococcus epidermidis, IAM1296, Concomitant (IPM:SM = 1:1), read-out: MIC): 0.016 µg/mL
- MIC ([1]; Staphylococcus epidermidis, IAM1296, Concomitant (MEPM:SM = 1:1), read-out: MIC): ≤ 0.016 µg/mL
- MIC ([1]; Staphylococcus epidermidis, IAM1296, Concomitant (MEPM:SM = 1:2), read-out: MIC): ≤ 0.031 µg/mL
- MIC ([1]; Staphylococcus epidermidis, IAM1296, Concomitant (MEPM:SM = 1:4), read-out: MIC): ≤ 0.063 µg/mL
- MIC ([1]; Staphylococcus epidermidis, IAM1296, Concomitant (PAPM:SM = 1:1), S. epidermidis IAM1296, read-out: MIC concomitant): 0.016 µg/mL
- MIC ([1]; Staphylococcus epidermidis, IAM1296, Concomitant (PIPC:SM = 1:1), S. epidermidis IAM1296, read-out: MIC concomitant): 0.016 µg/mL
- MIC ([1]; Staphylococcus epidermidis, IAM1296, Concomitant drug (MEPM:SM = 2:1), read-out: MIC): 0.031 µg/mL
- MIC ([1]; Staphylococcus epidermidis, IAM1296, alone, read-out: MIC): 0.016 µg/mL
- MIC ([1]; Staphylococcus epidermidis, IAM1296, drug alone, S. epidermidis IAM1296, read-out: MIC alone): 0.031 µg/mL
- MIC ([1]; alone): 0.031 µg/mL
- MIC alone ([1]; drug alone, S. epidermidis IAM1296): 0.016 µg/mL
- MIC ([2]; Concomitant (AZT:SM = 1:1), Str. pyogenes Cook, read-out: MIC concomitant): 0.004 µg/mL
- MIC ([2]; Concomitant (BIPM:SM = 1:1), Str. pyogenes Cook, read-out: MIC concomitant): 0.004 µg/mL
- MIC ([2]; Concomitant (CAZ:SM = 1:1), Str. pyogenes Cook, read-out: MIC concomitant): 0.004 µg/mL
- MIC ([2]; Concomitant (CPFX:SM = 1:1), Str. pyogenes Cook, read-out: MIC concomitant): 0.004 µg/mL
- MIC ([2]; Concomitant (DRPM:SM = 1:1), Str. pyogenes Cook, read-out: MIC concomitant): ≤ 0.002 µg/mL
- MIC ([2]; Concomitant (IPM:SM = 1:1), read-out: MIC): ≤ 0.002 µg/mL
- MIC ([2]; Concomitant (MEPM:SM = 1:1), read-out: MIC): ≤ 0.016 µg/mL
- MIC ([2]; Concomitant (MEPM:SM = 1:2), read-out: MIC): ≤ 0.031 µg/mL
- MIC ([2]; Concomitant (MEPM:SM = 1:4), read-out: MIC): ≤ 0.063 µg/mL
- MIC ([2]; Concomitant (PAPM:SM = 1:1), Str. pyogenes Cook, read-out: MIC concomitant): ≤ 0.002 µg/mL
- MIC ([2]; Concomitant (PIPC:SM = 1:1), Str. pyogenes Cook, read-out: MIC concomitant): ≤ 0.002 µg/mL
- MIC ([2]; Concomitant drug (MEPM:SM = 2:1), read-out: MIC): ≤ 0.008 µg/mL
- MIC ([2]; alone, read-out: MIC): ≤ 0.008 µg/mL
- MIC ([2]; drug alone, Str. pyogenes Cook, read-out: MIC alone): 0.004 µg/mL
- MIC ([3]; Enterococcus faecalis, ATCC19433, Concomitant (AZT:SM = 1:1), E. faecalis ATCC19433, read-out: MIC concomitant): 1 µg/mL
- MIC ([3]; Enterococcus faecalis, ATCC19433, Concomitant (BIPM:SM = 1:1), E. faecalis ATCC19433, read-out: MIC concomitant): 1 µg/mL
- MIC ([3]; Enterococcus faecalis, ATCC19433, Concomitant (CAZ:SM = 1:1), E. faecalis ATCC19433, read-out: MIC concomitant): 1 µg/mL
- MIC ([3]; Enterococcus faecalis, ATCC19433, Concomitant (CPFX:SM = 1:1), E. faecalis ATCC19433, read-out: MIC concomitant): 0.5 µg/mL
- MIC ([3]; Enterococcus faecalis, ATCC19433, Concomitant (DRPM:SM = 1:1), E. faecalis ATCC19433, read-out: MIC concomitant): 1 µg/mL
- MIC ([3]; Enterococcus faecalis, ATCC19433, Concomitant (IPM:SM = 1:1), read-out: MIC): 0.5 µg/mL
- MIC ([3]; Enterococcus faecalis, ATCC19433, Concomitant (MEPM:SM = 1:1), read-out: MIC): 1 µg/mL
- MIC ([3]; Enterococcus faecalis, ATCC19433, Concomitant (MEPM:SM = 1:2), read-out: MIC): 1 µg/mL
- MIC ([3]; Enterococcus faecalis, ATCC19433, Concomitant (MEPM:SM = 1:4), read-out: MIC): 1 µg/mL
- MIC ([3]; Enterococcus faecalis, ATCC19433, Concomitant (PAPM:SM = 1:1), E. faecalis ATCC19433, read-out: MIC concomitant): 1 µg/mL
- MIC ([3]; Enterococcus faecalis, ATCC19433, Concomitant (PIPC:SM = 1:1), E. faecalis ATCC19433, read-out: MIC concomitant): 0.5 µg/mL
- MIC ([3]; Enterococcus faecalis, ATCC19433, Concomitant drug (MEPM:SM = 2:1), read-out: MIC): 0.5 µg/mL
- MIC ([3]; Enterococcus faecalis, ATCC19433, alone, read-out: MIC): 1 µg/mL
- MIC ([3]; Enterococcus faecalis, ATCC19433, drug alone, E. faecalis ATCC19433, read-out: MIC alone): 2 µg/mL
- MIC ([3]; alone): 2 µg/mL
- MIC alone ([3]; drug alone, E. faecalis ATCC19433): 1 µg/mL
- MIC ([4]; ATCC19434, Concomitant (AZT:SM = 1:1), E. faecium ATCC19434, read-out: MIC concomitant): 0.125 µg/mL
- MIC ([4]; ATCC19434, Concomitant (BIPM:SM = 1:1), E. faecium ATCC19434, read-out: MIC concomitant): 0.25 µg/mL
- MIC ([4]; ATCC19434, Concomitant (CAZ:SM = 1:1), E. faecium ATCC19434, read-out: MIC concomitant): 0.125 µg/mL
- MIC ([4]; ATCC19434, Concomitant (CPFX:SM = 1:1), E. faecium ATCC19434, read-out: MIC concomitant): 0.25 µg/mL
- MIC ([4]; ATCC19434, Concomitant (DRPM:SM = 1:1), E. faecium ATCC19434, read-out: MIC concomitant): 0.25 µg/mL
- MIC ([4]; ATCC19434, Concomitant (IPM:SM = 1:1), read-out: MIC): 0.125 µg/mL
- MIC ([4]; ATCC19434, Concomitant (MEPM:SM = 1:1), read-out: MIC): 0.125 µg/mL
- MIC ([4]; ATCC19434, Concomitant (MEPM:SM = 1:2), read-out: MIC): 0.25 µg/mL
- MIC ([4]; ATCC19434, Concomitant (MEPM:SM = 1:4), read-out: MIC): 0.125 µg/mL
- MIC ([4]; ATCC19434, Concomitant (PAPM:SM = 1:1), E. faecium ATCC19434, read-out: MIC concomitant): 0.125 µg/mL
- MIC ([4]; ATCC19434, Concomitant (PIPC:SM = 1:1), E. faecium ATCC19434, read-out: MIC concomitant): 0.125 µg/mL
- MIC ([4]; ATCC19434, Concomitant drug (MEPM:SM = 2:1), read-out: MIC): 0.25 µg/mL
- MIC ([4]; ATCC19434, alone, read-out: MIC): 0.25 µg/mL
- MIC ([4]; ATCC19434, drug alone, E. faecium ATCC19434, read-out: MIC alone): 0.25 µg/mL
- MIC alone ([4]; drug alone, E. faecium ATCC19434): 0.125 µg/mL
- MIC ([5]; ATCC6633, Concomitant (AZT:SM = 1:1), B. subtilis ATCC6633, read-out: MIC concomitant): ≤ 0.002 µg/mL
- MIC ([5]; ATCC6633, Concomitant (BIPM:SM = 1:1), B. subtilis ATCC6633, read-out: MIC concomitant): ≤ 0.002 µg/mL
- MIC ([5]; ATCC6633, Concomitant (CAZ:SM = 1:1), B. subtilis ATCC6633, read-out: MIC concomitant): ≤ 0.002 µg/mL
- MIC ([5]; ATCC6633, Concomitant (CPFX:SM = 1:1), B. subtilis ATCC6633, read-out: MIC concomitant): 0.004 µg/mL
- MIC ([5]; ATCC6633, Concomitant (DRPM:SM = 1:1), B. subtilis ATCC6633, read-out: MIC concomitant): ≤ 0.002 µg/mL
- MIC ([5]; ATCC6633, Concomitant (IPM:SM = 1:1), read-out: MIC): ≤ 0.002 µg/mL
- MIC ([5]; ATCC6633, Concomitant (MEPM:SM = 1:1), read-out: MIC): ≤ 0.016 µg/mL
- MIC ([5]; ATCC6633, Concomitant (MEPM:SM = 1:2), read-out: MIC): ≤ 0.031 µg/mL
- MIC ([5]; ATCC6633, Concomitant (MEPM:SM = 1:4), read-out: MIC): ≤ 0.063 µg/mL
- MIC ([5]; ATCC6633, Concomitant (PAPM:SM = 1:1), B. subtilis ATCC6633, read-out: MIC concomitant): ≤ 0.002 µg/mL
- MIC ([5]; ATCC6633, Concomitant (PIPC:SM = 1:1), B. subtilis ATCC6633, read-out: MIC concomitant): ≤ 0.002 µg/mL
- MIC ([5]; ATCC6633, Concomitant drug (MEPM:SM = 2:1), read-out: MIC): ≤ 0.008 µg/mL
- MIC ([5]; ATCC6633, alone, read-out: MIC): ≤ 0.008 µg/mL
- MIC ([5]; ATCC6633, drug alone, B. subtilis ATCC6633, read-out: MIC alone): 0.004 µg/mL
- MIC ([6]; ML1410, Concomitant (AZT:SM = 1:1), E. coli ML1410, read-out: MIC concomitant): 0.063 µg/mL
- MIC ([6]; ML1410, Concomitant (BIPM:SM = 1:1), E. coli ML1410, read-out: MIC concomitant): 0.063 µg/mL
- MIC ([6]; ML1410, Concomitant (CAZ:SM = 1:1), E. coli ML1410, read-out: MIC concomitant): 0.063 µg/mL
- MIC ([6]; ML1410, Concomitant (CPFX:SM = 1:1), E. coli ML1410, read-out: MIC concomitant): 0.125 µg/mL
- MIC ([6]; ML1410, Concomitant (DRPM:SM = 1:1), E. coli ML1410, read-out: MIC concomitant): 0.031 µg/mL
- MIC ([6]; ML1410, Concomitant (IPM:SM = 1:1), read-out: MIC): 0.125 µg/mL
- MIC ([6]; ML1410, Concomitant (MEPM:SM = 1:1), read-out: MIC): ≤ 0.016 µg/mL
- MIC ([6]; ML1410, Concomitant (MEPM:SM = 1:2), read-out: MIC): ≤ 0.031 µg/mL
- MIC ([6]; ML1410, Concomitant (MEPM:SM = 1:4), read-out: MIC): ≤ 0.063 µg/mL
- MIC ([6]; ML1410, Concomitant (PAPM:SM = 1:1), E. coli ML1410, read-out: MIC concomitant): 0.125 µg/mL
- MIC ([6]; ML1410, Concomitant (PIPC:SM = 1:1), E. coli ML1410, read-out: MIC concomitant): 0.125 µg/mL
- MIC ([6]; ML1410, Concomitant drug (MEPM:SM = 2:1), read-out: MIC): ≤ 0.008 µg/mL
- MIC ([6]; ML1410, alone, read-out: MIC): 0.25 µg/mL
- MIC ([6]; ML1410, drug alone, E. coli ML1410, read-out: MIC alone): 0.25 µg/mL
- MIC ([7]; NIHJJC2, Concomitant (AZT:SM = 1:1)): 0.063 µg/mL
- MIC ([7]; NIHJJC2, Concomitant (BIPM:SM = 1:1)): 0.031 µg/mL
- MIC ([7]; NIHJJC2, Concomitant (CAZ:SM = 1:1)): 0.063 µg/mL
- MIC ([7]; NIHJJC2, Concomitant (CPFX:SM = 1:1)): ≤ 0.002 µg/mL

— patent publication US20090018111A1, “Novel Antimicrobial Medicament” (priority 2004, published 2009)
